Data reported in ChEMBL document CHEMBL5154726, “Identification of triazolopyridine derivatives as a new class of AhR agonists and evaluation of anti-psoriasis effect in a mouse model” (Eur J Med Chem, 2022).
Activity calls are given as the source filed them. The calls are words filed in the database; no cut-off is given here.

Tests used:
[1] = biological target: T1, Aryl hydrocarbon receptor (Homo sapiens, UniProt P35869); assay: Agonist activity at AhR signalling in human HaCaT cells assessed as increase in CYP1A1 mRNA expression by qRT-PCR analysis; type: cell-based; conditions: 10 µM, DDE = dose-dependent effect
T1 sequence (P35869 whole entry): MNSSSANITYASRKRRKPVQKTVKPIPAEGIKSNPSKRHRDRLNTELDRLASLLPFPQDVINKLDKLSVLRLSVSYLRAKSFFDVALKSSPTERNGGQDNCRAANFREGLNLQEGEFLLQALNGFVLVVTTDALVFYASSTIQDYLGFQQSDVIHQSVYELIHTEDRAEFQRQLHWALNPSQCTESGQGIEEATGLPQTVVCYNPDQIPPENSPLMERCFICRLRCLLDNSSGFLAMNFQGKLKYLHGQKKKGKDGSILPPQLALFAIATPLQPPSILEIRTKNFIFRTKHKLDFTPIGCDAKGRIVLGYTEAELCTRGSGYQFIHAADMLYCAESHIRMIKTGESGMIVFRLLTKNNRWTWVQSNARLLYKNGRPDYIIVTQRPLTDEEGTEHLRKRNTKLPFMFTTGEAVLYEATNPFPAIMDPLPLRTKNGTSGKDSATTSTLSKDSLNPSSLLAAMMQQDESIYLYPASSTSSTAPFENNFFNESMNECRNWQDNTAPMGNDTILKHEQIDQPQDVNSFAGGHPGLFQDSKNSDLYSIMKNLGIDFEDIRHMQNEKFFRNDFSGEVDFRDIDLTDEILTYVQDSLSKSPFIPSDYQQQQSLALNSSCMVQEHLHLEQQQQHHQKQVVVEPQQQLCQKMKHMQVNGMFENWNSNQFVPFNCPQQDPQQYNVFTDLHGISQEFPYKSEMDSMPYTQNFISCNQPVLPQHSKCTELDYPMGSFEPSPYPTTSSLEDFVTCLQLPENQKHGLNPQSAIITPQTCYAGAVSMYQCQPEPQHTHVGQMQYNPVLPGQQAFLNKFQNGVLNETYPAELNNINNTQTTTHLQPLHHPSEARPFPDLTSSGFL

[2] = biological target: T1, Aryl hydrocarbon receptor; assay: Agonist activity at AhR in human recombinant HepG2-Lucia AhR cell incubated for 24 hrs by luciferase reporter gene assay; type: cell-based
HaCaT = assay: Downregulation of CYP1A1 gene expression in AhR knockdown human HaCaT cells incubated for 48 hrs by qRT-PCR analysis; type: functional, cell-based
[3] = biological target: T1, Aryl hydrocarbon receptor; assay: Induction of Ahr nuclear translocation from cytoplasm to nucleus in human HaCaT cells at 0.01 uM incubated for 1 hr by Western blot analysis; type: cell-based
[4] = biological target: T1, Aryl hydrocarbon receptor; assay: Induction of Ahr nuclear translocation in human HaCaT cells at 10 uM incubated for 90 mins by immunofluorescence analysis; type: cell-based; conditions: 1.5 h
[5] = biological target: NAD(P)H dehydrogenase [quinone] 1 (Homo sapiens) (UniProt P15559); assay: Activation of NQO1 expression in human HaCaT cells up to 10 uM by qRT-PCR analysis; type: cell-based; conditions: filed as activator
Chain of NAD(P)H dehydrogenase [quinone] 1 (Homo sapiens) (P15559 whole entry): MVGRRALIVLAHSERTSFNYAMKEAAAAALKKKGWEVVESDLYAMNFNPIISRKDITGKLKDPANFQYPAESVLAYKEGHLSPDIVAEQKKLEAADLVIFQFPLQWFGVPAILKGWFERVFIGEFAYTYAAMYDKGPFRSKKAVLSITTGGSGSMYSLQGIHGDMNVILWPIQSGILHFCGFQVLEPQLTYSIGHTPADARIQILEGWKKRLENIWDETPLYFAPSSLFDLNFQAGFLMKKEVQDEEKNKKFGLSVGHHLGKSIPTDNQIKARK

[6] = biological target: T1, Aryl hydrocarbon receptor; assay: Induction of Ahr signalling in human HaCaT cells assessed as upregulation of FLG expression incubated for 48 hrs; type: cell-based
[7] = biological target: T1, Aryl hydrocarbon receptor; assay: Induction of Ahr signalling in human HaCaT cells assessed as upregulation of IVL expression incubated for 48 hrs; type: cell-based
[8] = biological target: T1, Aryl hydrocarbon receptor; assay: Induction of Ahr signalling in human HaCaT cells assessed as upregulation of HRNR expression incubated for 48 hrs; type: cell-based
[9] = Cytotoxicity against human BEAS-2B cells assessed as reduction in cell viability measured after 72 hrs by MTT assay; type: toxicity, cell-based
[10] = Cytotoxicity against human HUVEC cells assessed as reduction in cell viability measured after 72 hrs by MTT assay; type: toxicity, cell-based
[11] = Cytotoxicity against human LX2 cells assessed as reduction in cell viability measured after 72 hrs by MTT assay; type: toxicity, cell-based, LX-2
[12] = Tmax in Sprague-Dawley rat at 10 mg/kg, po measured up to 24 hrs by LC-MS/MS analysis; type: ADME, organism-based; conditions: in vivo
[13] = AUC (0 to t) in Sprague-Dawley rat at 5 mg/kg, iv measured up to 24 hrs by LC-MS/MS analysis; type: ADME, organism-based; set-up: dose 5 mg/kg, time < 24 hrs, route iv; conditions: in vivo
[14] = AUC (0 to infinity) in Sprague-Dawley rat at 5 mg/kg, iv measured up to 24 hrs by LC-MS/MS analysis; type: ADME, organism-based; set-up: dose 5 mg/kg, time < 24 hrs, route iv; conditions: in vivo
[15] = AUC (0 to infinity) in Sprague-Dawley rat at 10 mg/kg, po measured up to 24 hrs by LC-MS/MS analysis; type: ADME, organism-based; set-up: time < 24 hrs, dose 10 mg/kg, route po; conditions: in vivo
[16] = MRT in Sprague-Dawley rat at 5 mg/kg, iv measured up to 24 hrs by LC-MS/MS analysis; type: ADME, organism-based; conditions: in vivo
[17] = MRT in Sprague-Dawley rat at 10 mg/kg, po measured up to 24 hrs by LC-MS/MS analysis; type: ADME, organism-based; conditions: in vivo
[18] = Half life in Sprague-Dawley rat at 5 mg/kg, iv measured up to 24 hrs by LC-MS/MS analysis; type: ADME, organism-based; conditions: in vivo
[19] = Clearance in Sprague-Dawley rat at 5 mg/kg, iv measured up to 24 hrs by LC-MS/MS analysis; type: ADME, organism-based; conditions: in vivo
[20] = Volume of distribution at steady state in Sprague-Dawley rat at 5 mg/kg, iv measured up to 24 hrs by LC-MS/MS analysis; type: ADME, organism-based; conditions: in vivo, read-out: Vdss
[21] = Oral bioavailability in Sprague-Dawley rat at 10 mg/kg measured up to 24 hrs by LC-MS/MS analysis; type: ADME, organism-based; conditions: in vivo
Cytochrome P450 2C9 = Cytochrome P450 2C9 (Homo sapiens, UniProt P11712); assay: Inhibition of CYP2C9 in human liver microsomes in presence of NADPH by LC-MS/MS analysis; type: ADME, Microsome
Chain of Cytochrome P450 2C9 (P11712 whole entry): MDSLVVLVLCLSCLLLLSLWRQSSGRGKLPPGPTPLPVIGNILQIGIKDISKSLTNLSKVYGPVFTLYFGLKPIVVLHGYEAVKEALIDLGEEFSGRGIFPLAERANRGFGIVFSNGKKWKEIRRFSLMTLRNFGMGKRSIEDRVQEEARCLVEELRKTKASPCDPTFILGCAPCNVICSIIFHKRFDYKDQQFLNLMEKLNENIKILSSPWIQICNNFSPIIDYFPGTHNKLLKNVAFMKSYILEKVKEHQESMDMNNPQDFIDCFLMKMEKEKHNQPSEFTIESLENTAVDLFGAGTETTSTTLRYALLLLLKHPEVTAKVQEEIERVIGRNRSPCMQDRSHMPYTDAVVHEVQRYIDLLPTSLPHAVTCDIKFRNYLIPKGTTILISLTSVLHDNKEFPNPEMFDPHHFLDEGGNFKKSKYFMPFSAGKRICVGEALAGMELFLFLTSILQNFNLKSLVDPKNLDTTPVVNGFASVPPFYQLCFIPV

Cytochrome P450 2C19 = Cytochrome P450 2C19 (Homo sapiens, UniProt P33261); assay: Inhibition of CYP2C19 in human liver microsomes in presence of NADPH by LC-MS/MS analysis; type: ADME, Microsome
Chain of Cytochrome P450 2C19 (P33261 whole entry): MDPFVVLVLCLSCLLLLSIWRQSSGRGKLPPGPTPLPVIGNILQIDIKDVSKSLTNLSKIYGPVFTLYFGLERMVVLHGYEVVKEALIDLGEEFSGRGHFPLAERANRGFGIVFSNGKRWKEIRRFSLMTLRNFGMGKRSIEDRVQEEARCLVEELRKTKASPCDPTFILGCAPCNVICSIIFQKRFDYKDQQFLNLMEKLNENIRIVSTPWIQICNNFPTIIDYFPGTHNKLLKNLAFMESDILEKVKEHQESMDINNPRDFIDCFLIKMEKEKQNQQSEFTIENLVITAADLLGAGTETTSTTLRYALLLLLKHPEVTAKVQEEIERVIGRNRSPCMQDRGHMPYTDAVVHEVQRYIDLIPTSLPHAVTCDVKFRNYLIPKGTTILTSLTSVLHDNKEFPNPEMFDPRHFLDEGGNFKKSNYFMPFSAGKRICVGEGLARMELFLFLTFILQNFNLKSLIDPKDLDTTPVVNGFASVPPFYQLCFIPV

Cytochrome P450 3A4 = Cytochrome P450 3A4 (Homo sapiens, UniProt P08684); assay: Inhibition of CYP3A4 in human liver microsomes in presence of NADPH by LC-MS/MS analysis; type: ADME, Microsome
Chain of Cytochrome P450 3A4 (P08684 whole entry): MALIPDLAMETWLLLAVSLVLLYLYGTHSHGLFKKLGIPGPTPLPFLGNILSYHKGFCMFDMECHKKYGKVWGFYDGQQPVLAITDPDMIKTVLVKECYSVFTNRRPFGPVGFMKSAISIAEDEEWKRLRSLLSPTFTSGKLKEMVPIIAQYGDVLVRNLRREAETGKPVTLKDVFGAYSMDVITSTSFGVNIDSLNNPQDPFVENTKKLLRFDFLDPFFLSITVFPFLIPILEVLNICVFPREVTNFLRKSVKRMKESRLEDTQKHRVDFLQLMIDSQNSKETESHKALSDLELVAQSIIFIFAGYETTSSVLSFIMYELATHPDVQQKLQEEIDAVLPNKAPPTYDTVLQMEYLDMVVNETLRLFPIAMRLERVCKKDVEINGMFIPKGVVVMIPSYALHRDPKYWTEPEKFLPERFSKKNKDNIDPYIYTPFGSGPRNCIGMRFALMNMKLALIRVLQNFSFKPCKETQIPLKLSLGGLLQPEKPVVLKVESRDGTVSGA

Mus musculus [22] = assay: Anti-psoriatic activity in IMQ-induced BALB/c psoriasis mouse model assessed as reduction in IL-17f expression at 0.1 to 1 % treated topically by qRT-PCR analysis; type: functional, organism-based; conditions: dose 0.1-1 %
Mus musculus [23] = assay: Anti-psoriatic activity in IMQ-induced BALB/c psoriasis mouse model assessed as reduction in skin thickening at 0.1 to 1 % treated topically by H and E staining based analysis; type: functional, organism-based; conditions: dose 0.1-1 %
Mus musculus [24] = assay: Anti-psoriatic activity in IMQ-induced BALB/c psoriasis mouse model assessed as reduction in erythema at 0.1 to 1 % treated topically by H and E staining based analysis; type: functional, organism-based; conditions: dose 0.1-1 %
Mus musculus [25] = assay: Anti-psoriatic activity in IMQ-induced BALB/c psoriasis mouse model assessed as reduction in IL-17f expression at 5 to 20 mg/kg, po by qRT-PCR analysis; type: functional, organism-based; conditions: dose 5-20 mg/kg
Mus musculus [26] = assay: Anti-psoriatic activity in IMQ-induced BALB/c psoriasis mouse model assessed as reduction in skin thickening at 5 to 20 mg/kg, po by H and E staining based analysis; type: functional, organism-based; conditions: dose 5-20 mg/kg

Brc1ccc(-c2nc3ccc(Br)cn3n2)cc1
Activity [1]: Dde | EC50 [2]: 0.03 nM | Activity (HaCaT): Active | Activity [3]: Active | Activity [4]: Active | Activity [5]: Active | Activity [6]: Active | Activity [7]: Active | Activity [8]: Active | IC50 at 72 h [9]: > 300 µM | IC50 at 72 h [10]: > 300 µM | IC50 at 72 h [11]: > 300 µM | Tmax [12]: 49.8 min | AUC(0-t) at 24 h [13]: 4640 ng·h/mL | AUC(0-inf) [14]: 4640 ng·h/mL | AUC(0-inf) [15]: 1420 ng·h/mL | MRT [16]: 53.4 min | MRT [17]: 109 min | half-life [18]: 48.6 min | clearance [19]: 19 mL/min/kg | Vd [20]: 1.02 L/kg | bioavailability [21]: 15.1% | IC50 (Cytochrome P450 2C9): > 10 µM | IC50 (Cytochrome P450 2C19): > 10 µM | IC50 (Cytochrome P450 3A4): > 10 µM | Activity (Mus musculus [22]): Active | Activity (Mus musculus [23]): Active | Activity (Mus musculus [24]): Active | Activity (Mus musculus [25]): Active | Activity (Mus musculus [26]): Active
